Data from ChEMBL document CHEMBL3507680, “University of Dundee, Gates Library screen for HepG2 cell viability”.

Experiment: Human HepG2 cell viability assay in 384 well format
Assay type: toxicity, cell-based
Set-up: dose 125 nL, time 70.5 hour; cytotoxicity at 70.5 h: concentration not given beside the values
Conditions: HepG2 cells, read-out: Inhibition
With `O=C(Cc1ccccc1C(F)(F)F)N1CCC2(CC1)OCCCC2O` (stereo unspecified) the cytotoxicity at 70.5 h was -16.7%. For `COC(=O)CCC(=O)N1CCc2[nH]nc(-c3ccc(F)c(F)c3)c2C1`, the cytotoxicity at 70.5 h was -8.06%. `Cc1nc(C2(NCC(=O)NC(=O)NCc3cccs3)CCCCC2)no1` showed a cytotoxicity at 70.5 h of -12.5%. `FC(F)(F)c1nc(NC2CCCCC2)c2ccccc2n1` gave a cytotoxicity at 70.5 h of -10.5%. In the case of `O=C(c1ccnnc1)N1C[C@@H]2C[C@@H](c3nc(C4CC4)cs3)O[C@@H]2C1`, the cytotoxicity at 70.5 h is reported as -3.56%. With `CC(C(=O)N1CCOCC1)n1nc(-c2cccs2)cc(N)c1=O` (stereo unspecified) the cytotoxicity at 70.5 h was 2.02%. For `CC(C(=O)N1CCCC1)N1CCC(c2nccn2Cc2cscn2)CC1` (stereo unspecified), the cytotoxicity at 70.5 h was -9.41%. With `Cc1nnc2n1CCN(C(=O)c1cc(C)n(-c3ccccn3)c1C)C2` the cytotoxicity at 70.5 h was -14%. `O=c1cc(Cn2cncn2)nc2n1CCCN(Cc1ccoc1)C2` showed a cytotoxicity at 70.5 h of -0.379%. `CN(C(=O)Cn1nc(-c2cccs2)ccc1=O)C1CCS(=O)(=O)C1` (stereo unspecified) showed a cytotoxicity at 70.5 h of 11.2%. In the case of `CC(C)OCc1cccc(CNc2cnn(C)c(=O)c2Cl)c1`, the cytotoxicity at 70.5 h is reported as 3.32%. Work on `Cc1nc(CCCNC(=O)C2CC(=O)N(C3CC3)C2)sc1C` (stereo unspecified) yielded a cytotoxicity at 70.5 h of 3.65%. With `CCCSCC(=O)N1CCCC(CO)(CCC)C1` (stereo unspecified) the cytotoxicity at 70.5 h was -22.8%. With `Cc1cnn(C2CCCN(C(=O)c3ccccc3-n3cnnn3)C2)c1` (stereo unspecified) the cytotoxicity at 70.5 h was -3.2%. Compound `CN(C)S(=O)(=O)N1CC[C@]2(C[C@H](OCc3ccccn3)CO2)C1` has a cytotoxicity at 70.5 h of -0.384%. With `CC(C)CNC(=O)c1ccc2nnc(C3CCN(S(C)(=O)=O)C3)n2c1` (stereo unspecified) the cytotoxicity at 70.5 h was -19.7%. In the case of `CCN(CC)C(=O)C(c1ccccc1)N1CCn2c(C)nnc2C1` (stereo unspecified), the cytotoxicity at 70.5 h is reported as 2.24%. With `CC(C)C(=O)N1CCN(Cc2cnn(C)c2)CC2(CC(=O)N(C)C2)C1` (stereo unspecified) the cytotoxicity at 70.5 h was -13.2%. For `CN1C(Cn2cccn2)C[C@@H]2CN(Cc3cccnc3)CC[C@@H]21` (stereo partly specified), the cytotoxicity at 70.5 h was -6.35%. For `O=C(c1ccc(-c2ccc(O)nc2)s1)N1CCCCC1`, the cytotoxicity at 70.5 h was -8.32%. `O=C(CCC1CCN(C(=O)c2cnco2)CC1)NCc1cccc(Cl)c1` gave a cytotoxicity at 70.5 h of -5.59%. In the case of `CCn1cnnc1Cn1cccc(C(F)(F)F)c1=O`, the cytotoxicity at 70.5 h is reported as 4.98%. `O=C(c1ccnnc1)N1C[C@H]2CCC[C@@]2(COCC2CCOCC2)C1` gave a cytotoxicity at 70.5 h of -13%. In the case of `Cc1noc(C2CCCN(C(=O)CCCNc3ncccn3)C2)n1` (stereo unspecified), the cytotoxicity at 70.5 h is reported as 3.05%. Work on `CCCNC(=O)c1cccc2ncccc12` yielded a cytotoxicity at 70.5 h of -4.07%. Work on `CCC(=O)N1CCC2(C=C(C(=O)N(C)C)c3ccccc32)CC1` yielded a cytotoxicity at 70.5 h of 14%. With `Cc1cnc(N2C[C@H]3CCN(CC4CC4)C[C@H]3C2)nc1` the cytotoxicity at 70.5 h was 9.39%. In the case of `Cc1nc2cc(C(=O)N3CCn4c(nnc4C4CC4)C3)ccc2s1`, the cytotoxicity at 70.5 h is reported as -2.23%. Work on `Cc1noc(C)c1CN(C)C(=O)NC1CCC(O)CC1` (stereo unspecified) yielded a cytotoxicity at 70.5 h of -8.86%. Work on `CC(C(=O)N(C)Cc1nnc2n1CCC2)S(C)(=O)=O` (stereo unspecified) yielded a cytotoxicity at 70.5 h of -1.23%. `O=C(NCC1CC(=O)N(CCc2ccccc2)C1)c1ccon1` (stereo unspecified) gave a cytotoxicity at 70.5 h of -3.55%. With `COCC(=O)N1CCCC1c1ccc(C(=O)NCCN2CCCCC2)s1` (stereo unspecified) the cytotoxicity at 70.5 h was -10.2%. `CCc1nnc2n1CCN(C(C(=O)NC1CC1)c1ccc(F)cc1)C2` (stereo unspecified) gave a cytotoxicity at 70.5 h of -15.2%. `CCN1CCN(c2ccc(CNC(=O)c3sccc3C)cn2)CC1` showed a cytotoxicity at 70.5 h of -9.08%. `COC(=O)c1cc(C2CC2)nc2c(Cl)cnn12` gave a cytotoxicity at 70.5 h of 24.9%. Compound `CCn1ccnc1CN(C)Cc1nc(Cc2cccc(F)c2)no1` has a cytotoxicity at 70.5 h of 11.1%. For `CCC(CC)c1cc(CNC(=O)N2CCOCC2CC)on1` (stereo unspecified), the cytotoxicity at 70.5 h was -10.6%. Compound `CCn1ncc(CN(C)C(=O)c2ccn(C)n2)c1C` has a cytotoxicity at 70.5 h of -6.74%. `Cc1cccnc1[C@H](C)NC(=O)Cc1cc2c(cc1Cl)OCCO2` gave a cytotoxicity at 70.5 h of 32.1%. `CC(C)OCCN(C)CC(c1cccs1)N1CCOCC1` (stereo unspecified) gave a cytotoxicity at 70.5 h of 29.2%. With `CCC(C)(NC(=O)CCN1CCOC1=O)C(=O)OC` (stereo unspecified) the cytotoxicity at 70.5 h was 20.8%. For `CCOc1cccnc1C(=O)N1CC=C(c2ccc(O)cc2)CC1`, the cytotoxicity at 70.5 h was -7.65%. With `CCc1nnc2n1CCN(C(=O)c1ccc3nc(C)c(C)nc3c1)C2` the cytotoxicity at 70.5 h was 1.25%. Compound `COC[C@@H]1CCC[C@]12CN(Cc1cccc(C)n1)CCO2` has a cytotoxicity at 70.5 h of -14.3%. Work on `NC(=O)c1noc(Cn2ccc3ccccc3c2=O)n1` yielded a cytotoxicity at 70.5 h of -4.6%. Compound `CCCc1ccc(CN2CCC3(CCC(=O)N(C)CC3)CC2)o1` has a cytotoxicity at 70.5 h of 17.3%. In the case of `Cc1nnc(CN(Cc2ccc3c(c2)OCO3)C2CCC(C)CC2)o1` (stereo unspecified), the cytotoxicity at 70.5 h is reported as -1.97%. `O=c1[nH]c2csnc2c(=O)n1Cc1ccc(Br)cc1` gave a cytotoxicity at 70.5 h of -10.2%. Work on `Cc1cc(N(C)C)nc(N2CCN(C(C)c3nc(C)no3)CC2)n1` (stereo unspecified) yielded a cytotoxicity at 70.5 h of 22.7%. For `N#Cc1cccnc1N1CCC(C2CCCCCN2C(=O)C2CC2)CC1` (stereo unspecified), the cytotoxicity at 70.5 h was 5.51%. `CCOCC(O)CN1CCN(C(=O)c2cccnc2OC)CC1` (stereo unspecified) showed a cytotoxicity at 70.5 h of -18%. With `Cc1nc(CN2C[C@@H]3COC[C@]3(COCC(=O)N(C)C)C2)cs1` the cytotoxicity at 70.5 h was -5.31%. With `CCN1CC(C(=O)N2CCc3cc(C(N)=O)n(C)c3C2)CC1=O` (stereo unspecified) the cytotoxicity at 70.5 h was -2.91%. Compound `CSCCCN1C[C@H](NC(=O)c2cnn(C)c2)[C@@H](C2CC2)C1` has a cytotoxicity at 70.5 h of -7.31%. Compound `COc1ccc(C[C@H]2CNCC[C@H]2OC)cc1` has a cytotoxicity at 70.5 h of -6.44%. In the case of `CCN(CC1CCCO1)C(=O)NCCNC(=O)c1ccccc1F` (stereo unspecified), the cytotoxicity at 70.5 h is reported as 43.4%.
